SMILES | logP
CCCCCn1nnc2ccccc21 | 3.22
O=c1nc(-c2ccccc2)c2cc(Br)ccc2[nH]1 | 2.71
O=C(NCC(O)c1ccc([N+](=O)[O-])cc1)C(F)(F)F (centres undefined) | 1.46
O=NN(CCCl)C(=O)NCCO | 0.3
Cc1noc(-c2ccccn2)n1 | 0.89
CSc1nnc(C2CCCCO2)c(=O)n1N (centres undefined) | 0.38
COc1ccc(NS(=O)(=O)C(F)(F)F)cc1 | 3
CN(C)C(=O)Oc1ccc(Cl)cc1 | 2.27
CC1=Nc2ccc(C)cc2S(=O)(=O)N1 | 0.81
CCCCCCCC1(CC)C(=O)NC(=O)NC1=O | 2.91
c1ccc(Sc2cnn[nH]2)cc1 | 2.65
CS(=O)(=O)c1cccc(NC(N)=O)c1 | -0.12
COc1ccc(C(c2ccc(OC)cc2)C(Cl)Cl)cc1 | 4.47
Nc1nc(N)nc(-c2cc(F)ccc2Br)n1 | 1.45
CCC(C)NC(=O)C=Cc1ccc(Cl)cc1 (centres undefined) | 3.37
CCC1C(=O)NC(=O)N(C)C1=O (centres undefined) | 0.15
CS(=O)(=O)Nc1cccc(NS(C)(=O)=O)c1 | 0.07
O=S1(=O)N=C(c2ccccc2)Nc2ccccc21 | 1.78
Nc1ncc(Cc2cc(Cl)c(Cl)c(Cl)c2)c(N)n1 | 3.64
S=C1CCCCCCCN1 | 1.44
Clc1ccc(-c2cc(Cl)ccc2Cl)cc1 | 5.69
c1ccc(Sc2nnc[nH]2)cc1 | 1.45
CCOC(=O)CCCn1nnc2ccccc21 | 1.86
COC(=O)C(C#N)=NNc1ccc2c(c1)OC(F)(F)C(F)(F)O2 | 4.86
CCOc1ncnc(NS(=O)(=O)c2ccc(N)cc2)c1OC | 1.18

SMILES | logP
CCCC(=O)NC(=O)NC(=O)CCC | 1.4
CC(C)(C)CC(N)C(=O)O (centres undefined) | -1.42
CCOC(=O)C(C#N)=NNc1cc(Cl)c(Cl)cc1Cl | 5.21
O=C1CN=C(c2ccccc2)c2cc([N+](=O)[O-])ccc2N1CC(O)CO (centres undefined) | 0.96
O=C([O-])c1ccc2ccccc2c1.[Na+] | -1.07
CCOCC(O)Cn1ccnc1[N+](=O)[O-] (centres undefined) | 0.04
CC(=O)N(CC(O)CO)c1c(I)c(C(=O)NCC(O)CO)c(I)c(C(=O)NCC(O)CO)c1I (centres undefined) | -3.05
COP(=O)(OC)Oc1cc(C)c([N+](=O)[O-])c(C)c1 | 2.57
CCCCCCCCCC[n+]1ccc(C)cc1C.[I-] | 0.54
CCc1cccc(CC)c1NC1=NCCN1 | 2.48
CCNP(=O)(OC)Oc1cc(Cl)c(Cl)cc1Cl (centres undefined) | 3.18
COC(=O)C(C#N)=NNc1ccc(C(F)(F)F)cc1 | 3.79
COP(N)(=O)Oc1cc(Cl)c(Cl)cc1Cl (centres undefined) | 2.53
Cc1ccccc1C1=NCC(=O)N(C)c2ccc(Cl)cc21 | 3.03
CSc1ccccc1C1=NCC(=O)Nc2ccc(Cl)cc21 | 2.99
CS(=O)(=O)c1ccc(NS(=O)(=O)C(F)(F)F)cc1 | 1.99
COc1cc(Cc2cnc(N)nc2N)ccc1SC | 1.92
Cc1cccc2c1ncc[n+]2[O-] | 1.2
Cc1[nH]c(=O)n(OC(C)C)c(=O)c1Br | 0.45
CC1(C)N=C(N)N=C(N)N1c1ccc(N)cc1 | -0.59
CCCOC(=O)NC | 0.95
CCCNP(=O)(OC)Oc1cc(Cl)c(Cl)cc1Cl (centres undefined) | 3.7
CCOC(=O)C(=Cc1cccc(C)c1)C(C)=O | 2.8
O=C1CCC(=O)N1c1cccc(Br)c1 | 1.09
Cc1ccccc1C(=O)NN | 0.22

SMILES | logP
CCCC1=Nc2cc(Cl)ccc2S(=O)(=O)N1 | 2.04
CC1CCCN(N=O)C1 (centres undefined) | 0.99
CNC(=O)Oc1ccc(S(C)(=O)=O)cc1 | 0.34
O=NN1CCC(c2ccccc2)CC1 | 2.59
CC(C)(C)c1ccc(OC2OC(CO)C(O)C(O)C2O)cc1 (centres undefined) | 1.18
COC(=O)C(C#N)=NNc1ccccc1 | 2.59
O=C(O)CCN1C(=O)C=CC1=O | 0.04
O=C1CCC(=O)N1c1cccc(C(F)(F)F)c1 | 1.26
CC1=C(C(=O)O)N2C(=O)C(NC(=O)Cc3cccs3)C2SC1 (centres undefined) | 0.61
COc1cc(Cc2cnc(N)nc2N)cc(OCc2ccccc2)c1OC | 2.37
CN(C)CCN(Cc1ccc(C(C)(C)C)cc1)c1ccccc1 | 5.34
CCOP(=O)(OCC)Oc1c(Cl)cc(SC)cc1Cl | 3.72
COc1cc(S(=O)(=O)CC(O)c2ccccc2)cc(OC)c1OC (centres undefined) | 1.65
CC(=O)N(CCO)c1c(I)c(C(=O)NCC(O)CO)c(I)c(C(=O)NCC(O)CO)c1I (centres undefined) | -2.47
O=C1CN=C(c2ccccc2Cl)c2cc(Cl)ccc2N1 | 3.15
Cc1cccc(C)c1N=C1NCCN1 | 1.45
CCCCN(CCCC)CCS(=O)(=O)c1cc(OC)c(OC)c(OC)c1 | 3.55
COCc1c(OC)cc(Cc2cnc(N)nc2N)cc1OC | 1.19
O=C1CC(C(=O)O)Oc2ccc(Cl)cc21 (centres undefined) | 1.77
O=C1CCCN1Cc1ccccc1 | 1.25
COc1cc(S(=O)(=O)CCO)cc(OC)c1OC | 0.18
O=C(O)Cc1ccc(OCc2ccccc2)c(Cl)c1 | 3.43
Fc1cccc(F)c1N=C1NCCN1 | 0.93
N#CC(C#N)=C(c1ccccc1)c1ccccc1 | 3.55
Cc1ccccc1C(=N)c1ccccc1C | 3.31

SMILES | logP
COc1cc(Cc2cnc(N)nc2N)ccc1N | 0.49
CCCSC1OC(CO)C(O)C(O)C1O (centres undefined) | -1.18
O=S1(=O)N=CNc2ccc(Cl)cc21 | 1.07
CN(C)/N=N/c1ccccc1C(=O)NN | 1.28
COc1cc(-n2[nH]c(C)cc2=O)ncn1 | 0.99
O=C1C(O)=C(CC=C(Cl)Cl)C(=O)c2ccccc21 | 3.1
CN(C)CCc1cccs1 | 1.99
O=C(Nc1n[nH]c(NC(=O)C(F)(F)F)n1)C(F)(F)F | 0.62
COC1C(Cl)C(Cl)C(OC)C(Cl)C1Cl (centres undefined) | 3.15
COc1cc(Cc2cnc(N)nc2N)cc(OC)n1 | 1.64
O=C(c1ccncc1)c1ccccc1O | 2.13
S=C=Nc1ccc(-c2ccc(N=C=S)cc2)cc1 | 5.5
O=C(COc1ccc(Cl)cc1)NNCc1ccccc1 | 2.92
CSC(C)=NOC(=O)N(C)SN(C)C(=O)c1ccc(Cl)cc1Cl | 3.2
COc1c(N(C)C)cc(Cc2cnc(N)nc2N)cc1N(C)C(C)=O | 1.01
CCSC(=O)Oc1cccc2cccnc12 | 2.74
CC=CCOC(=O)C1C(C=C(C)C)C1(C)C (centres undefined) | 5.09
COc1ccc(CCCC(=O)O)cc1 | 2.33
O=C1NC(=O)C(=Cc2ccc([N+](=O)[O-])o2)S1 | 0.63
O=C1CC2OCCC3CN4CCC56c7ccccc7N1C5C2C3CC46 (centres undefined) | 1.62
FC(F)(F)c1nc2ncccc2[nH]1 | 1.38
C=CCOCC(O)Cn1ccnc1[N+](=O)[O-] (centres undefined) | 0.4
CN(C)CC(=O)NCc1ccccc1 | 1.11
CON(C)C(=O)Nc1ccc(OCc2ccccc2)cc1 | 3.11
CCCCCCCCCCCCCC[n+]1cc(C)cc(C)c1.[I-] | 2.9

SMILES | logP
CC1=Nc2ccc(S(=O)(=O)N(C)C)cc2S(=O)(=O)N1 | 0.32
COc1cc(Cc2cnc(N)nc2N)c(Cl)c(OC)c1 | 2.13
CCOc1cc(Cc2cnc(N)nc2N)cc(OCC)c1C(=O)CS(C)(=O)=O | 0.79
CC(=O)Nc1ccn(C2OC(COC(C)=O)C(OC(C)=O)C2OC(C)=O)c(=O)n1 (centres undefined) | -0.16
NC1=NC(=O)C(=Cc2ccc([N+](=O)[O-])o2)S1 | 1.09
CC(=O)c1ccccc1NCCO | 1.59
CC(=O)OCC1=C(C(=O)O)N2C(=O)[C@@H](NC(=O)CBr)[C@H]2SC1 | -0.7
CSc1cccc(N=NN(C)C)c1 | 2.98
CCOC(=O)C(C#N)=NNc1cc(Cl)c(Cl)c(Cl)c1 | 5.03
CC(=O)OCCOC(=O)c1ccccc1 | 1.85
O=C1CCC(=O)N1c1ccc(Cl)cc1 | 0.96
CCCC(C)n1nnc2ccccc21 (centres undefined) | 2.95
c1ccc(Nc2ccccn2)cc1 | 2.75
CCOC(=O)CN(C(=O)CCl)c1ccccc1 | 1.6
COCN1C(=O)CN=C(c2ccccc2)c2cc(Cl)ccc21 | 2.86
COc1ccccc1NCC#N | 1.3
Clc1cc(Cl)c(Cl)c(-c2ccc(Cl)c(Cl)c2Cl)c1 | 7.39
COc1cc(CC(=O)O)ccc1OCCCC(C)C | 3.3
Cc1cccc(OC2OC(CO)C(O)C(O)C2O)c1 (centres undefined) | -0.2
Clc1ccc(-c2ccc(Cl)cc2Cl)cc1 | 5.62
Nc1nc(N)nc(-c2cc(Cl)ccc2Cl)n1 | 1.97
COc1ccc(C=C[N+](=O)[O-])cc1 | 2.2
COc1ccccc1OC1OC(CO)C(O)C(O)C1O (centres undefined) | -1.04
CCCOc1cccc(O)c1 | 2.59
O=[N+]([O-])c1nccn1C1SC(CO)C(O)C(O)C1O (centres undefined) | -0.66

SMILES | logP
CCNC1=NC(=O)C(=Cc2ccc([N+](=O)[O-])o2)S1 | 1.16
OCCCCn1nnc2ccccc21 | 1.03
CCCCCCCC[n+]1ccc(C)c(C)c1.[I-] | -0.41
CCOP(=S)(OCC)SCS(=O)CC (centres undefined) | 1.78
COC(=O)C(C#N)=NNc1cc(Cl)c(Cl)cc1Cl | 5.15
CCCCCCN(SN(C)C(=O)ON=C(C)SC)C(=O)N(C)C | 3.3
COc1ccc(C(=O)c2ccncc2)cc1 | 1.94
CCOc1cc(Cc2cnc(N)nc2N)cc(OCC)c1C(C)=O | 2.04
CC(C)Cc1nnc(N)o1 | 0.4
ClC1C(Cl)C(Cl)C(Br)C(Cl)C1Cl (centres undefined) | 3.74
N#Cc1cccc(OC(=O)CNC(=O)c2ccccc2)c1 | 2.11
CNC(=O)NN | -2.2
CCc1ccccc1N1C(=O)CCC1=O | 0.64
Clc1cc(Cl)c(N=C2NCCN2)c(Cl)c1 | 2.18
O=C(Nc1ccccc1)c1cc(N2CC2)c([N+](=O)[O-])cc1[N+](=O)[O-] | 2.23
COC(=O)C(C#N)=NNc1c(Cl)cc(C(F)(F)F)cc1Cl | 4.36
N#Cc1ccc2c(c1)C(c1ccccc1)=NCC(=O)N2 | 1.82
[Br-].c1ccc(CC[n+]2ccccc2)cc1 | -2.35
COc1nc(-c2ccccc2)c2ccccc2n1 | 3.5
COc1cc(C)nn1-c1ccncn1 | 0.5
CN1C(=O)C(=Cc2ccc([N+](=O)[O-])o2)SC1=S | 1.06
CC1CN(C)C(=Nc2ncc([N+](=O)[O-])s2)N1 (centres undefined) | 1.95
O=C1CN=C(c2ccccc2)c2ccccc2N1 | 2.18
CCCCOC(=O)N(CCCC)SN(C)C(=O)ON=C(C)SC | 4.2
